The results in this text go back to patent US8198273B2, “Compounds and methods for kinase modulation, and indications therefor” (Plexxikon Inc., priority 2009, dated 2012).

The structures appear in SMILES notation.

Test [1] has as its system A375 melanoma cells (B-Raf V600E). In words: A375 cell growth inhibition (ATPlite). The format is cell-based. Particulars: Homo sapiens, A-375, 72 h; A375, 3 days incubation. The protocol:
(§1) Compounds are assessed in a variety of cell based assays. For example human cell lines with B-Raf V600E mutation (A375 melanoma, SKMEL3 melanoma, and COL0205 colon adenocarcinoma), as well as tumorigenic cell lines with wild-type B-RAF (SW620 colon adenocarcinoma) or with Ras mutations (SKMEL2 melanoma and IPC298 melanoma). Similar assays may be used to assess additional tumorigenic cell lines with Ras mutations, including, but not limited to, M202, M207, M243, M244, M296, S117, HCT116, HCT15, DLD1, MiaPaCa, A549, NCI-H23, NCI-H460, HOP62, MDA-MB231, Hs-578T, HL60, MOLT-4, and CCRF-CEM.
(§2) On day 1, cells are counted, then centrifuged in a conical tube for 5 minutes at 1000 rpm. The supernatant is removed and cells are re-suspended as follows: • SW620 (ATCC catalog #CCL-27): resuspend in Leibovitz's L-15 medium, 2 mM L-glutamine, 10% fetal bovine serum to 6×10^4 cells/mL. • A375 (ATCC catalog #CRL-1619): resuspend in Dulbecco's modified Eagle's medium, 4 mM L-glutamine, 4.5 g/L D-glucose, 10% fetal bovine serum to 6×10^4 cells/mL. • COL0205 (ATCC catalog #CCL-222): resuspend in RPMI 1640, 2 mM L-glutamine, 1.5 g/L sodium bicarbonate, 4.5 g/L D-glucose, 10 mM HEPES, 1.0 mM sodium pyruvate, 10% fetal bovine serum to 6×10^4 cells/mL. • SKMEL2 (ATCC catalog #HTB-68): resuspend in Minimum Eagle essential medium, 2 mM L-glutamine, 1.5 g/L sodium bicarbonate, 0.1 mM non-essential amino acids, 1.0 mM sodium pyruvate, 10% fetal bovine serum to 6×10^4 cells/mL. • SKMEL3 (ATCC catalog #HTB-69): resuspend in McCoy's 5A medium, 1.5 mM L-glutamine, 15% fetal bovine serum to 6×10^4 cells/mL. • IPC298 (DSMZ catalog #ACC 251): resuspend in RPMI 1640, 2 mM L-glutamine, 10% fetal bovine serum to 6×10^4 cells/mL.
(§3) The cells are plated, 50 μL in each well of a 96-well dish (Corning 3610) and incubated at 37° C. in 5% CO2 overnight, cells plated to a final concentration of cells as follows:
(§4) On day 2, compound at a maximum concentration of 5 mM is serially diluted 1:3 for a total of 8 point titration with DMSO as a control. A 1 μL aliquot of each dilution point and control is added to 249 μL growth media and 50 μL is added to a well containing cells, providing 10 μM compound at the maximum concentration point. The cells are incubated for 3 days at 37° C. in 5% CO2.
(§5) On day 5, ATPlite 1 step Luminescence Assay System (Perkin Elmer #6016739) is brought to room temperature along with the cell cultures. ATPlite is added 25 μL to each well, shake for 2 minutes, and the cells are incubated at room temperature for 10 minutes, then luminescence is read on Safire reader. The measured luminescence correlates directly with cell number, such that the reading as a function of compound concentration is used to determine the IC50 value.
(§6) It is understood that the results of these assays may vary as assay conditions are varied. Inhibition levels determined under the conditions described herein represent a relative activity for the compounds tested under the specific conditions employed. The cell based assays are likely to show variability due to the complexity of the system and the sensitivity thereof to any changes in the assay conditions. […] Results for compounds that are tested and show substantially no inhibition below the highest tested concentration are represented as “-” in the tables below. In some instances, the compounds were not tested in all of the assays, or assay results were not valid, as indicated by NA in the tables below.

A further test addresses B-Raf (Homo sapiens, UniProt P15056). The test can be described thus: B-Raf biochemical kinase inhibition (AlphaScreen, biotin-MEK1 substrate). Particulars: 100 μM ATP. The protocol: (§7) Compounds to be tested are diluted in dimethyl sulfoxide to a concentration of 0.1 mM. These are serially diluted 15 μL into 30 μL of dimethyl sulfoxide seven times in 96 well plates for a total of 8 dilution points, and for each dilution point 1 μL is added to a well of an assay plate. […] The reaction is started with addition of 10 μL of 200 μM ATP (i.e. final 100 μM ATP). […] The plates are incubated for 3 hours at room temperature and read on Envision reader (Perkin Elmer). […] The signal vs. compound concentration is used to determine the IC50.

Test [2] has as its system SW620 colon adenocarcinoma cells (wild-type B-RAF). In words: SW620 cell growth inhibition (ATPlite). The test is classed as cell-based. Particulars: Homo sapiens, SW-620, 72 h; SW620, 3 days incubation. The protocol: as §1, §2, §3, §4, §5, §6
The next test deals with B-Raf V600E (Homo sapiens, UniProt P15056, V600E). In words: B-Raf V600E biochemical kinase inhibition (AlphaScreen, biotin-MEK1 substrate). As to conditions: 100 μM ATP. The protocol: as §7
Sequence of B-Raf V600E (P15056 whole entry V600E): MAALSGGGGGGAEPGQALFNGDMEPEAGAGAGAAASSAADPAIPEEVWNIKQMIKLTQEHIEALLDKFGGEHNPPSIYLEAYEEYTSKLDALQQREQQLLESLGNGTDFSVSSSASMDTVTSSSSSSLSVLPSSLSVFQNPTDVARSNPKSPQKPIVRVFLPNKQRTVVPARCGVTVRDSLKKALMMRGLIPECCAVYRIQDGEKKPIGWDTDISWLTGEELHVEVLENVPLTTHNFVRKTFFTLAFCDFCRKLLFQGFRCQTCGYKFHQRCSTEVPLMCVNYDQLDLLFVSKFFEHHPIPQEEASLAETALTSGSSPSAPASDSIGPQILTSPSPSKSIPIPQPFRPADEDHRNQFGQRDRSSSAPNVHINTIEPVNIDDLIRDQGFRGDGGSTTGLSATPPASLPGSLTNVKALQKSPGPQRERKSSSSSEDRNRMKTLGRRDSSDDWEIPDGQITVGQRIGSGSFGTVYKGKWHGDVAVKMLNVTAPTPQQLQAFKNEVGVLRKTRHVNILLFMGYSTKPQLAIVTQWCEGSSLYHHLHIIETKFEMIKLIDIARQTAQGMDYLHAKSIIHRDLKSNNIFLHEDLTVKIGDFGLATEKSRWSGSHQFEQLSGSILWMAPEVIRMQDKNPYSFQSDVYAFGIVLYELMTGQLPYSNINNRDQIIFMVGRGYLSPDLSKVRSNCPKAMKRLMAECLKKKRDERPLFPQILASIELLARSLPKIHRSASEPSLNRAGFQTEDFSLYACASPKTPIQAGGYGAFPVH

Sequence of B-Raf (P15056 whole entry): as the sequence (P15056 whole entry V600E) above, with E600V counted along it

With `CCCS(=O)(=O)Nc1ccc(F)c(C(=O)c2c[nH]c3ncc(-c4cnc(OCCCN(C)C)nc4)cc23)c1F` [P-2203, Propane-1-sulfonic acid (3-{5-[2-(3-dimethylamino-propoxy)-pyrimidin-5-yl]-1H-pyrrolo[2,3-b]pyridine-3-carbonyl}-2,4-difluoro-phenyl)-amide], the IC50 in test [1] is less than 1 µM; against B-Raf it was less than 0.01 µM; in test [2], greater than 10 µM; against B-Raf V600E, less than 0.01 µM.
